# System: Alzheimer's disease model mice
# Protocol: With reference to NPL 6, Alzheimer's disease model mice were prepared according to the following procedure and the improvement effect of acetic acid was evaluated.
# Taking the day when the administration was started as Day 1, amyloid was injected on Day 3. Specifically, an animal was anesthetized by intraperitoneally administering 40 mg/kg of pentobarbital sodium (Tokyo Chemical Industry Co., Ltd.) (amount of liquid administered: 10 mL/kg). After anesthesia, levobupivacaine hydrochloride (Popscaine (registered tradename) 0.25% inj., Maruishi Pharmaceutical Co. Ltd.) was subcutaneously administered (0.1 mL) to the scalp. After anesthesia, hair of a parietal region of the animal was cut and the head was fixed on a brain stereotaxic apparatus.
# The scalp was disinfected with ethanol for disinfection and then was cut to expose the cranial bone. […]
# An animal was placed in any one arm of the Y-shaped maze and was allowed to freely sleuth in the maze for 8 minutes. The order of the arms that the animal moved during the measurement period was recorded and the number of the movements to arms was counted and taken as a total entry number. […]
# A spontaneous alternation action rate was calculated with the following formula. […]
compound,measurement,setting,value
"CC(=O)[O-].[Na+] [Sodium acetate, sodium acetate]",Spontaneous alternation action rate (%),"Amyloid β injection group, 150 mM sodium acetate with drinking water, Y-maze 8 minutes, p < 0.01 vs Amyloid β + physiological saline",67.5%
same,cognitive function of Alzheimer disease model mice,intake of 150 mM sodium acetate with drinking water,improved a cognitive function

# Source: US20200113854A1, “Composition for Improving Brain Function” (MORINAGA MILK INDUSTRY CO., LTD., priority 2017, published 2020)
